Measurements published in US20230159527A1, “COMPOUNDS AS BCL-2 INHIBITORS” (Fochon Pharmaceuticals, Ltd., priority 2020, published 2023).

Experiments:
Assay type in all cases: cell-based
Toledo cells = test: Cell proliferation assay, Toledo cells (MTS, 72 h); conditions: Homo sapiens, Toledo cells, MTS, read-out: Toledo IC50
Outline: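 IC50 was derived from 490 nm absorbance after a 2 h MTS step. Before that, compounds at 1.5–10000 nM final (nine points) acted on Toledo cells for 72 h at 37 °C, 5% CO2. Cells were seeded at 30000/well in 10% FBS RPMI-1640 and rested 4 h before dosing.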

RS4;11-BCL-2 G101V cells = test: Cell proliferation assay, engineered RS4;11 cells stably overexpressing BCL-2 G101V (MTS, 168 h); conditions: Homo sapiens, RS4-11, 168 h, read-out: RS4, 11 BCL2- G101V
Protocol: (§1) MTS testing kit was purchased from Promega (Madison, Wis., USA). The RPMI-1640, Fetal bovine serum and Penicillin-Streptomycin were purchased from BI (Biological Industries, Beit Haemek, Israel). Puromycin was purchased from Beyotime (shanghai, China). Dimethyl sulfoxide (DMSO) was purchased from Sigma (St. Louis, Mo., USA). RS4;1l-BCL-2 G101V and RS4;11-BCL-2 F104L cells were cultured in RPM11640 supplemented with 1 ug/mL puromycin, 100 U/mL Penicillin-Streptomycin and 10% FBS.
(§2) To investigate whether a compound is able to inhibit the activity of BCL-2 mutation in cells, a mechanism-based assay using engineered cell lines stably overexpressing BCL-2 mutation ([…] and […]) was developed. In this assay, the inhibition of BCL-2 mutation was reflected by the inhibition of cell proliferation of RS4;11-BCL-2 G101V and RS4;11-BCL-2 F104L cells. Cells were plated into 96-well plates at optimized cell density (RS4;11-BCL-2 G101V: 5000 cells/well; RS4;11-BCL-2 F104L: 5000 cells/well). Plates were incubated at 37° C., with 5% CO2 for 4 h. Compounds were serially diluted to the final-concentrations of 10000, 3333.3, 1111.1, 370.4, 123.5, 41.2, 13.7, 4.6 and 1.4 nM and added to the plates. Plates were incubated at 37° C., with 5% CO2 for 168 h. 20 μl MTS was added into each well and the plates were incubated at 37° C., with 5% CO2 exactly for 2 h. The absorbance was measured by a microplate reader at 490 nm. IC50 values were calculated using GraphPad Prism 5.0 software.

RS4;11-BCL-2 F104L cells = test: Cell proliferation assay, engineered RS4;11 cells stably overexpressing BCL-2 F104L (MTS, 168 h); conditions: Homo sapiens, read-out: RS4, 11 BCL2-F104L
Protocol: as §1, §2

Row | SMILES | IC50 (Toledo cells) | IC50 (RS4;11-BCL-2 G101V cells) | IC50 (RS4;11-BCL-2 F104L cells)
1 | CC(C)c1ccccc1[C@@H]1CCC[C@@H]1N1CC2(CCN(c3ccc(C(=O)NS(=O)(=O)c4cnc(NC[C@H]5CC[C@](C)(O)CC5)c([N+](=O)[O-])c4)c(Oc4cnc5[nH]cc(F)c5c4)c3)CC2)C1 (single isomer, unassigned) [Example A-149, 2-((3-fluoro-1H-pyrrolo[2,3-b]pyridin-5-yl)oxy)-N-((6-((((1r,4r)-4-hydroxy-4-methylcyclohexyl)methyl)amino)-5-nitropyridin-3-yl)sulfonyl)-4-(2-((1S,2S or 1R,2R)-2-(2-isopropylphenyl)cyclo-petyl)-2,7-diazaspiro[3.5]nonan-7-yl) benzamide] | 1 nM | 1 nM | 1 nM
2 | COC(C)COc1nc2[nH]cc(F)c2cc1Oc1cc(N2CCC3(CC2)CN([C@H]2CCC[C@H]2c2ccccc2C(C)C)C3)ccc1C(=O)NS(=O)(=O)c1ccc(NC[C@H]2CC[C@](C)(O)CC2)c([N+](=O)[O-])c1 (single isomer, unassigned) [Example D-233, 2-((3-fluoro-6-(2-methoxypropoxy)-1H-pyrrolo[2,3-b]pyridin-5-yl)oxy)-N-((4-(((1r,4r)-4-hydroxy-4-methylcyclohexyl)methyl)amino)-3-nitrophenyl)sulfonyl)-4-(2-((1S,2S or 1R,2R)-2-(2-isopropylphenyl)cyclopentyl)-2,7-diazaspiro[3.5]nonan-7-yl)benzamide] |  | 14 nM | 4 nM
3 | COC(C)COc1nc2[nH]cc(F)c2cc1Oc1cc(N2CCC3(CC2)CC(N2CCC[C@H]2c2ccccc2C(C)C)C3)ccc1C(=O)NS(=O)(=O)c1cc2c(c([N+](=O)[O-])c1)N[C@@H]([C@H]1CC[C@](C)(O)CC1)CO2 (single isomer, unassigned) [Example D-243, 2-((3-fluoro-6-(2-methoxypropoxy)-1H-pyrrolo[2,3-b]pyridin-5-yl)oxy)-N-(((S)-3-((1r,4S)-4-hydroxy-4-methylcyclohexyl)-5-nitro-3,4-dihydro-2H-benzo[b][1,4]oxazin-7-yl)sulfonyl)-4-(2-((R or S)-2-(2-isopropylphenyl)pyrrolidin-1-yl)-7-azaspiro[3.5]nonan-7-yl)benzamide] |  | 10 nM | 1 nM
4 | COC(C)COc1nc2[nH]cc(F)c2cc1Oc1cc(N2CCC3(CC2)CN([C@H]2CCC[C@H]2c2ccccc2C(C)C)C3)ccc1C(=O)NS(=O)(=O)c1cnc(NC[C@H]2CC[C@](C)(O)CC2)c([N+](=O)[O-])c1 (single isomer, unassigned) [Example A-155, 2-((3-fluoro-6-(2-methoxypropoxy)-1H-pyrrolo[2,3-b]pyridin-5-yl)oxy)-N-((6-((((1r,4r)-4-hydroxy-4-methyl-cyclohexyl)methyl)amino)-5-nitro-pyridin-3-yl)sulfonyl)-4-(2-((1S,2S or 1R,2R)-2-(2-isopropylphenyl)cyclo-pentyl)-2,7-diazaspiro[3.5]nonan-7-yl) benzamide] |  | 13 nM | 1 nM
5 | COC(C)COc1nc2[nH]cc(F)c2cc1Oc1cc(N2CCC3(CC2)CN([C@H]2CCC[C@H]2c2ccccc2C(C)C)C3)ccc1C(=O)NS(=O)(=O)c1cc2c(c([N+](=O)[O-])c1)N[C@@H]([C@H]1CC[C@](C)(O)CC1)CO2 (single isomer, unassigned) [Example D-241, 2-((3-fluoro-6-(2-methoxypropoxy)-1H-pyrrolo[2,3-b]pyridin-5-yl)oxy)-N-(((S)-3-((1r,4S)-4-hydroxy-4-methylcyclohexyl)-5-nitro-3,4-dihydro-2H-benzo[b][1,4]oxazin-7-yl)sulfonyl)-4-(2-((1S,2S or 1R,2R)-2-(2-isopropylphenyl)cyclopentyl)-2,7-diazaspiro[3.5]nonan-7-yl)benzamide] |  | 4 nM | 1 nM
6 | CC(C)c1ccccc1[C@@H]1CN(S(C)(=O)=O)CCN1C1CC2(CCN(c3ccc(C(=O)NS(=O)(=O)c4cc5c(c([N+](=O)[O-])c4)N[C@@H]([C@H]4CC[C@](C)(O)CC4)CO5)c(Oc4cnc5[nH]cc(F)c5c4)c3)CC2)C1 (single isomer, unassigned) [Example D-80, 2-((3-fluoro-1H-pyrrolo[2,3-b]pyridin-5-yl)oxy)-N-(((S)-3-((1r,4S)-4-hydroxy-4-methylcyclohexyl)-5-nitro-3,4-dihydro-2H-benzo[b] [1,4]oxazin-7-yl)sulfonyl)-4-(2-((R or S)-2-(2-isopropylphenyl)-4-(methylsulfonyl)piperazin-1-yl)-7-azaspiro[3.5]nonan-7-yl)benzamide] | 1 nM | 8 nM | 
7 | CC(C)c1ccccc1[C@@H]1CCC[C@@H]1N1CC2(CCN(c3ccc(C(=O)NS(=O)(=O)c4cc5c(c([N+](=O)[O-])c4)N[C@@H]([C@H]4CC[C@](C)(O)CC4)CO5)c(Oc4cc5c(F)c[nH]c5nc4Cl)c3)CC2)C1 (single isomer, unassigned) [Example D-106, 2-((6-chloro-3-fluoro-1H-pyrrolo [2,3-b]pyridin-5-yl)oxy)-N-(((S)-3-((1r,4S)-4-hydroxy-4-methylcyclohexyl)-5-nitro-3,4-dihydro-2H-benzo[b][1,4]oxazin-7-yl)sulfonyl)-4-(2-((1S,2S or 1R,2R)-2-(2-isopropylphenyl)cyclopentyl)-2,7-diazaspiro[3.5]nonan-7-yl)benzamide] | 1 nM | 14 nM | 
8 | CNCCOc1nc2[nH]ccc2cc1Oc1cc(N2CCC3(CC2)CC(N2CCC[C@H]2c2ccccc2C(C)C)C3)ccc1C(=O)NS(=O)(=O)c1cc2c(c([N+](=O)[O-])c1)N[C@@H]([C@H]1CC[C@](C)(O)CC1)CO2 (single isomer, unassigned) [Example D-59, N-(((S)-3-((1r,4S)-4-hydroxy-4-methylcyclohexyl)-5-nitro-3,4-dihydro-2H-benzo[b][1,4]oxazin-7-yl)sulfonyl)-4-(2-((R or S)-2-(2-isopropylphenyl)pyrrolidin-1-yl)-7-azaspiro[3.5]nonan-7-yl)-2-((6-(2-(methylamino)ethoxy)-1H-pyrrolo[2,3-b]pyridin-5-yl)oxy)benzamide] | 1 nM | 15 nM | 
9 | COCCOc1nc2[nH]ccc2cc1Oc1cc(N2CCC3(CC2)CN([C@H]2CCC[C@H]2c2ccccc2C(C)C)C3)ccc1C(=O)NS(=O)(=O)c1cc2c(c([N+](=O)[O-])c1)N[C@@H]([C@H]1CC[C@](C)(O)CC1)CO2 (single isomer, unassigned) [Example D-75b, N-(((S)-3-((1r,4S)-4-hydroxy-4-methylcyclohexyl)-5-nitro-3,4-dihydro-2H-benzo[b][1,4]oxazin-7-yl)sulfonyl)-4-(2-((1S,2S or 1R,2R)-2-(2-isopropylphenyl)cyclopentyl)-2,7-diazaspiro[3.5]nonan-7-yl)-2-((6-(2-methoxyethoxy)-1H-pyrrolo[2,3-b]pyridin-5-yl)oxy) benzamide] | 1 nM | 16 nM | 
10 | CC(C)c1ccccc1[C@@H]1CCCN1C1CC2(CCN(c3ccc(C(=O)NS(=O)(=O)c4cc5c(c([N+](=O)[O-])c4)N[C@@H]([C@H]4CC[C@](C)(O)CC4)CO5)c(Oc4cc5cc[nH]c5nc4OC4COC4)c3)CC2)C1 (single isomer, unassigned) [Example D-72, N-(((S)-3-((1r,4S)-4-hydroxy-4-methylcyclohexyl)-5-nitro-3,4-dihydro-2H-benzo[b][1,4]oxazin-7-yl)sulfonyl)-4-(2-((R or S)-2-(2-isopropylphenyl)pyrrolidin-1-yl)-7-azaspiro[3.5]nonan-7-yl)-2-((6-(oxetan-3-yloxy)-1H-pyrrolo[2,3-b]pyridin-5-yl)oxy) benzamide] | 1 nM | 17 nM | 
